The results in this text go back to patent US7741341B2, “Benzimidazole-derivatives as factor Xa inhibitors” (sanofi-aventis Deutschland GmbH, priority 2003, dated 2010).

For orientation: Ki means a dissociation constant, usually derived from enzyme kinetics or from competition with a known ligand.

Each structure is given as a SMILES string.

T1 sequence (P00742 235-488 limits assumed): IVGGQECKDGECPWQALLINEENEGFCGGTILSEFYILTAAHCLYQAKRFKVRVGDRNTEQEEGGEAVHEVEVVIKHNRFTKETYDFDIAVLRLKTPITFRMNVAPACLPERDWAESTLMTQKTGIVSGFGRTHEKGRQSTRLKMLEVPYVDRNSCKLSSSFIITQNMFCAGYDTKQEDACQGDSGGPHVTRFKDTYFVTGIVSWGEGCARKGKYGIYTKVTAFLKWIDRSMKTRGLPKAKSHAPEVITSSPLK
T1 sequence (P00742 41-179 partner limits assumed): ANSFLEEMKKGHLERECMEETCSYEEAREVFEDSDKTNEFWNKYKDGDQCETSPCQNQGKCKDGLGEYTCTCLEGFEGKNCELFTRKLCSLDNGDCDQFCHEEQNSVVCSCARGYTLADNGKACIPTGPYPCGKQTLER

This test has as its target T1, human factor Xa (Homo sapiens, UniProt P00742).
T1 construct: human factor Xa (Enzyme Research Laboratories, Inc; South Bend, Ind.); purchased Enzyme Research Laboratories, Inc; South Bend, Ind
In words: Factor Xa assay (chromogenic, substrate S-2765). Format: biochemical. The note with it: read-out: Ki(FXa). The procedure: Purified enzymes were used in chromogenic assays.
The IC50 was determined by combining in appropriate wells of a Costar half-area microtiter plate 25 μl human factor Xa (Enzyme Research Laboratories, Inc.; South Bend, Ind.) in TBS-PEG; 40 μl 10% (v/v) DMSO in TBS-PEG (uninhibited control) or various concentrations of the compound to be tested diluted in 10% (v/v) DMSO in TBS-PEG; and substrate S-2765 (N(α)-benzyloxycarbonyl-D-Arg-Gly-L-Arg-p-nitroanilide; Kabi Pharmacia, Inc.; Franklin, Ohio) in TBS-PEG.
The assay was performed by pre-incubating the compound of formula I plus enzyme for 10 min. Then the assay was initiated by adding substrate to obtain a final volume of 100 μl. […] The enzyme concentration was 0.5 nM and substrate concentration was 140 μM.
`COC(=O)c1ccc2c(c1)nc(C(=O)NC1CCN(C(C)C)CC1)n2CC(=O)Nc1ccc(Cl)cn1` [Example 17a, 1-[(5-Chloro-pyridin-2-ylcarbamoyl)-methyl]-2-(1-isopropyl-piperidin-4-ylcarbamoyl)-1H-benzoimidazole-5-carboxylic acid methyl ester]: the Ki worked out at 19.5 nM.
Turning to `O=C(Nc1ccc(-n2ccncc2=O)cc1)c1nc2ccccc2n1Cc1cc(-c2ccc(Cl)s2)on1` [Example 48, 1-[5-(5-Chloro-thiophen-2-yl)-isoxazol-3-ylmethyl]-1H-benzoimidazole-2-carboxylic acid [4-(2-oxo-2H-pyrazin-1-yl)-phenyl]-amide], the Ki is 2 nM.
The figure for `CC(C)N1CCC(NC(=O)c2nc3c(C(=O)N4CCC(O)CC4)cccc3n2Cc2cc(-c3ccc(Cl)s3)on2)CC1` [Example 91, 1-[5-(5-Chloro-thiophen-2-yl)-isoxazol-3-ylmethyl]-4-(4-hydroxy-piperidine-1-carbonyl)-1H-benzoimidazole-2-carboxylic acid (1-isopropyl-piperidin-4-yl)-amide] is 21 nM; for `CC(OC(=O)OC1CCCCC1)OC(=O)c1ccc2c(c1)nc(C(=O)NC1CCN(C(C)C)CC1)n2Cc1cc(-c2ccc(Cl)s2)on1` (stereo not shown) [Example 28, 1-[5-(5-Chloro-thiophen-2-yl)-isoxazol-3-ylmethyl]-2-(1-isopropyl-piperidin-4-ylcarbamoyl)-1H-benzoimidazole-5-carboxylic acid 1-cyclohexyloxycarbonyloxy-ethyl ester] it is 48 nM.
The figure for `CC(C)N1CCC(NC(=O)c2nc3c(CO)cccc3n2CC(=O)Nc2ccc(Cl)cn2)CC1` [Example 71, 1-[(5-Chloro-pyridin-2-ylcarbamoyl)-methyl]-4-hydroxymethyl-1H-benzoimidazole-2-carboxylic acid (1-isopropyl-piperidin-4-yl)-amide] is 7 nM; for `COC(=O)c1cccc2nc(C(=O)NC3CCN(C(C)C)CC3)n(Cc3cc(-c4ccc(Cl)s4)on3)c12` [Example 11b, 3-[5-(5-Chloro-thiophen-2-yl)-isoxazol-3-ylmethyl]-2-(1-isopropyl-piperidin-4-ylcarbamoyl)-3H-benzoimidazole-4-carboxylic acid methyl ester] it is 1 nM.
The figure for `CC(C)N1CCC(NC(=O)c2nc3c(C(=O)N(C)CCO)cccc3n2CC(=O)Nc2ccc(Cl)cn2)CC1` [Example 31, 1-[(5-Chloro-pyridin-2-ylcarbamoyl)-methyl]-1H-benzoimidazole-2,4-dicarboxylic acid 4-[(2-hydroxy-ethyl)-methyl-amide] 2-[(1-isopropyl-piperidin-4-yl)-amide]] is 15.5 nM; for `CC(C)N1CCC(NC(=O)c2nc3ccc(C(=O)OCCO)cc3n2Cc2cc(-c3ccc(Cl)s3)on2)CC1` [Example 65, 3-[5-(5-Chloro-thiophen-2-yl)-isoxazol-3-ylmethyl]-2-(1-isopropyl-piperidin-4-ylcarbamoyl)-3H-benzoimidazole-5-carboxylic acid 2-hydroxy-ethyl ester] it is 121 nM; for `CC(C)N1CCC(NC(=O)c2nc3cc(C(=O)OCC(=O)O)ccc3n2Cc2cc(-c3ccc(Cl)s3)on2)CC1` [Example 79, 1-[5-(5-Chloro-thiophen-2-yl)-isoxazol-3-ylmethyl]-2-(1-isopropyl-piperidin-4-ylcarbamoyl)-1H-benzoimidazole-5-carboxylic acid carboxymethyl ester] it is 1 nM.
For `CC(C)N1CCC(NC(=O)c2nc3cc(C(=O)N4CCCOCC4)ccc3n2CC(=O)Nc2ccc(Cl)cn2)CC1` [Example 77, 1-[(5-Chloro-pyridin-2-ylcarbamoyl)-methyl]-5-([1,4]oxazepane-4-carbonyl)-1H-benzoimidazole-2-carboxylic acid (1-isopropyl-piperidin-4-yl)-amide], the Ki worked out at 52.5 nM.
With `COCCOc1cccc2c1nc(C(=O)NC1CCN(C(C)C)CC1)n2CC(=O)Nc1ccc(Cl)cn1` [Example 108, 1-[(5-Chloro-pyridin-2-ylcarbamoyl)-methyl]-4-(2-methoxy-ethoxy)-1H-benzoimidazole-2-carboxylic acid (1-isopropyl-piperidin-4-yl)-amide], the Ki is 6.5 nM.
Then `CC(C)N1CCC(NC(=O)c2nc3c(C(=O)OCCO)cccc3n2Cc2cc(-c3ccc(Cl)s3)on2)CC1` [Example 64, 1-[5-(5-Chloro-thiophen-2-yl)-isoxazol-3-ylmethyl]-2-(1-isopropyl-piperidin-4-ylcarbamoyl)-1H-benzoimidazole-4-carboxylic acid 2-hydroxy-ethyl ester], with 2 nM.
The figure for `COC(=O)c1sc(OCC(F)(F)F)c2nc(C(=O)NC3CCN(C(C)C)CC3)n(Cc3cc(-c4ccc(Cl)s4)on3)c12` [Example 105, 3-[5-(5-Chloro-thiophen-2-yl)-isoxazol-3-ylmethyl]-2-(1-isopropyl-piperidin-4-ylcarbamoyl)-6-(2,2,2-trifluoro-ethoxy)-3H-thieno[3,4-d]imidazole-4-carboxylic acid methyl ester] is 54500 nM; for `CC(C)N1CCC(NC(=O)c2nc3c(C(=O)NCCO)scc3n2Cc2cc(-c3ccc(Cl)s3)on2)CC1` [Example 102, 3-[5-(5-Chloro-thiophen-2-yl)-isoxazol-3-ylmethyl]-3H-thieno[3,4-d]imidazole-2,6-dicarboxylic acid 6-[(2-hydroxy-ethyl)-amide]2-[(1-isopropyl-piperidin-4-yl)-amide]] it is 2.5 nM; for `O=C(Nc1ccc(-n2ccc(=O)[nH]c2=O)cc1)c1nc2ccccc2n1Cc1cc(-c2ccc(Cl)s2)on1` [Example 41, 1-[5-(5-Chloro-thiophen-2-yl)-isoxazol-3-ylmethyl]-1H-benzoimidazole-2-carboxylic acid [4-(2,4-dioxo-3,4-dihydro-2H-pyrimidin-1-yl)-phenyl]-amide] it is 6 nM.
The figure for `CC(C)N1CCC(NC(=O)c2nc3ccc(C(=O)O)cc3n2CC(=O)Nc2ccc(Cl)cn2)CC1` [Example 19, 3-[(5-Chloro-pyridin-2-ylcarbamoyl)-methyl]-2-(1-isopropyl-piperidin-4-ylcarbamoyl)-3H-benzoimidazole-5-carboxylic acid] is 23.5 nM; for `CCOCCOc1cccc2c1nc(C(=O)NC1CCN(C(C)C)CC1)n2CC(=O)Nc1ccc(Cl)cn1` [Example 109, 1-[(5-Chloro-pyridin-2-ylcarbamoyl)-methyl]-4-(2-ethoxy-ethoxy)-1H-benzoimidazole-2-carboxylic acid (1-isopropyl-piperidin-4-yl)-amide] it is 3.5 nM; for `COC(=O)c1cccc2c1nc(C(=O)NC1CCN(C(C)C)CC1)n2Cc1cc(-c2ccc(Cl)s2)on1` [Example 11a, 1-[5-(5-Chloro-thiophen-2-yl)-isoxazol-3-ylmethyl]-2-(1-isopropyl-piperidin-4-ylcarbamoyl)-1H-benzoimidazole-4-carboxylic acid methyl ester] it is 4 nM.
`O=C(Cn1c(C(=O)Nc2ccc(-n3ccc(=O)[nH]c3=O)cc2)nc2ccccc21)Nc1ccc(Cl)cn1` [Example 44, 1-[(5-Chloro-pyridin-2-ylcarbamoyl)-methyl]-1H-benzoimidazole-2-carboxylic acid [4-(2,4-dioxo-3,4-dihydro-2H-pyrimidin-1-yl)-phenyl]-amide]: the Ki was determined as 28 nM.
Then `COC(=O)c1ccc2nc(C(=O)NC3CCN(C(C)C)CC3)n(CC(=O)Nc3ccc(Cl)cn3)c2c1` [Example 17b, 3-[(5-Chloro-pyridin-2-ylcarbamoyl)-methyl]-2-(1-isopropyl-piperidin-4-ylcarbamoyl)-3H-benzoimidazole-5-carboxylic acid methyl ester], with 371 nM.
Then `CC(C)N1CCC(NC(=O)c2nc3c(c(=O)n(C)c(=O)n3C)n2Cc2cc(-c3ccc(Cl)s3)on2)CC1` [Example 92, 7-[5-(5-Chloro-thiophen-2-yl)-isoxazol-3-ylmethyl]-1,3-dimethyl-2,6-dioxo-2,3,6,7-tetrahydro-1H-purine-8-carboxylic acid (1-isopropyl-piperidin-4-yl)-amide], with 22.5 nM; and `CC(OC(=O)OC1CCCCC1)OC(=O)c1cccc2c1nc(C(=O)NC1CCN(C(C)C)CC1)n2CC(=O)Nc1ccc(Cl)cn1` (stereo not shown) [Example 34, 1-[(5-Chloro-pyridin-2-ylcarbamoyl)-methyl]-2-(1-isopropyl-piperidin-4-ylcarbamoyl)-1H-benzoimidazole-4-carboxylic acid 1-cyclohexyloxycarbonyloxy-ethyl ester], with 19.5 nM.
Then `COCCOC(=O)c1cccc2c1nc(C(=O)NC1CCN(C(C)C)CC1)n2CC(=O)Nc1ccc(Cl)cn1` [Example 70, 1-[(5-Chloro-pyridin-2-ylcarbamoyl)-methyl]-2-(1-isopropyl-piperidin-4-ylcarbamoyl)-1H-benzoimidazole-4-carboxylic acid 2-methoxy-ethyl ester], with 15 nM; and `CCOC(=O)OC(C)OC(=O)c1cccc2c1nc(C(=O)NC1CCN(C(C)C)CC1)n2Cc1cc(-c2ccc(Cl)s2)on1` (stereo not shown) [Example 20, 1-[5-(5-Chloro-thiophen-2-yl)-isoxazol-3-ylmethyl]-2-(1-isopropyl-piperidin-4-ylcarbamoyl)-1H-benzoimidazole-4-carboxylic acid 1-ethoxycarbonyloxy-ethyl ester], with 8.5 nM; and `O=C(Cn1c(C(=O)Nc2ccc(-n3ccc(=O)cc3)cc2)nc2ccccc21)Nc1ccc(Cl)cn1` [Example 39, 1-[(5-Chloro-pyridin-2-ylcarbamoyl)-methyl]-1H-benzoimidazole-2-carboxylic acid [4-(4-oxo-4H-pyridin-1-yl)-phenyl]-amide], with 47 nM.
